Laboratory results: patent US12286425B2, “Herbicidally active bicyclic benzamides” (Bayer Aktiengesellschaft, priority 2018, dated 2025)

Legend:
Type in all cases: in vivo
[1] = test system: monocotyledonous and dicotyledonous weed plants and crop plants; assay: Pre-emergence herbicidal action and crop plant compatibility (PE), other species and comparison with A-117; conditions: for Herbicidal activity ABUTH: Abutilon theophrasti; for Herbicidal activity AMARE: Amaranthus retroflexus; for Herbicidal activity MATIN: Matricaria inodora; for Herbicidal activity STEME: Stellaria media; for Herbicidal activity VIOTR: Viola tricolor; for Herbicidal activity CYPES: Cyperus esculentus; for Herbicidal activity ECHCG: Echinochloa crus-galli; for Herbicidal activity POLCO: Polygonum convolvulus
From the text: (§1) 1. Pre-emergence herbicidal action and crop plant compatibility (pre-emergence, PE) Seeds of monocotyledonous and dicotyledonous weed plants and crop plants are placed in plastic or organic planting pots and covered with soil. The compounds of the invention, formulated in the form of wettable powders (WP) or as emulsion concentrates (EC), are then applied onto the surface of the covering soil as aqueous suspension or emulsion with addition of 0.5% additive at a water application rate of […] (converted). After the treatment, the pots are placed in a greenhouse and kept under good growth conditions for the trial plants. After about 3 weeks, the effect of the preparations is scored visually in comparison with untreated controls as percentages. The tables below show the herbicidal activity of numerous compounds according to the invention against important harmful plants. For example, 100% activity=the plants have died, 0% activity=like control plants.
(§2) In a comparative experiment, by way of example, the herbicidal activity of compound No. 2-13 according to the invention was compared to that of compound No. A-117 known from WO 2013/076315 A2.

[2] = test system: monocotyledonous and dicotyledonous weeds and crop plants; assay: Post-emergence herbicidal action and crop plant compatibility (PO), including comparison with A-117; conditions: for Herbicidal activity ABUTH / Herbicidal activity AMARE / Herbicidal activity ECHCG / Herbicidal activity STEME / Herbicidal activity VIOTR / Herbicidal activity VERPE / Herbicidal activity ALOMY / herbicidal activity AVEFA / Herbicidal activity PHBPU / Herbicidal activity LOLMU / Herbicidal activity MATIN / Herbicidal activity POLCO / Herbicidal activity SETVI / Herbicidal activity CYPES: post-emergence (PO); for Herbicidal activity ABUTH: Abutilon theophrasti; for Herbicidal activity AMARE: Amaranthus retroflexus; for Herbicidal activity ECHCG: Echinochloa crus-galli; for Herbicidal activity STEME: Stellaria media; for Herbicidal activity VIOTR: Viola tricolor; for Herbicidal activity VERPE: Veronica persica; for Herbicidal activity ALOMY: Alopecurus myosuroides; for herbicidal activity AVEFA: Avena fatua; for Herbicidal activity PHBPU: Ipomoea purpurea; for Herbicidal activity LOLMU: Lolium multiflorum; for Herbicidal activity MATIN: Matricaria inodora; for Herbicidal activity POLCO: Polygonum convolvulus; for Herbicidal activity SETVI: Setaria viridis; for Herbicidal activity CYPES: Cyperus esculentus
Procedure: 2. Post-emergence herbicidal action and crop plant compatibility (post-emergence, PO) Seeds of monocotyledonous and dicotyledonous weeds and crop plants are placed in sandy loam in plastic or organic planting pots, covered with soil and cultivated in a greenhouse under controlled growth conditions. 2 to 3 weeks after sowing, the test plants are treated at the one-leaf stage. The compounds of the invention, formulated in the form of wettable powders (WP) or as emulsion concentrates (EC), are then sprayed onto the green parts of the plants as aqueous suspension or emulsion with addition of 0.5% additive at a water application rate of […] (converted). After the test plants had been kept in the greenhouse under optimum growth conditions for about 3 weeks, the activity of the preparations is rated visually in comparison to untreated controls. The tables below show the herbicidal activity of numerous compounds according to the invention against important harmful plants. For example, 100% activity=the plants have died, 0% activity=like control plants.
as §2

SETVI = assay: Pre-emergence herbicidal action (PE), greenhouse pot test, SETVI; conditions: for Herbicidal activity SETVI: pre-emergence (PE)
From the text: as §1

AVEFA = assay: Pre-emergence herbicidal action (PE), greenhouse pot test, AVEFA; conditions: for herbicidal activity AVEFA: pre-emergence (PE), application rate 320, scored visually after about 3 weeks vs untreated controls, 100% = plants have died, 0% = like control plants
From the text: as §1

[3] = pre-emergence (PE), application rate 80, scored visually after about 3 weeks
[4] = application rate 20, rated visually after about 3 weeks
[5] = application rate 80, rated visually after about 3 weeks
[6] = pre-emergence (PE), application rate 320, scored visually after about 3 weeks
[7] = Setaria viridis, application rate 320, scored visually after about 3 weeks

Row | Compound | Herbicidal activity ECHCG [2, 5] | Herbicidal activity VERPE [2, 5] | Herbicidal activity VIOTR [2, 5] | Herbicidal activity ABUTH [1, 6] | Herbicidal activity AMARE [1, 6] | Herbicidal activity CYPES [1, 6] | Herbicidal activity ECHCG [1, 6] | Herbicidal activity MATIN [1, 6] | Herbicidal activity POLCO [1, 6] | Herbicidal activity STEME [1, 6] | Herbicidal activity VIOTR [1, 6] | Herbicidal activity ABUTH [2, 5] | Herbicidal activity AMARE [2, 5] | herbicidal activity AVEFA [2, 5] | Herbicidal activity PHBPU [2, 5] | Herbicidal activity POLCO [2, 5] | Herbicidal activity SETVI [2, 5] | Herbicidal activity STEME [2, 5] | Herbicidal activity SETVI (SETVI; [7]) | herbicidal activity AVEFA (AVEFA) | further results
1 | Cn1nnnc1NC(=O)c1ccc(C(F)(F)F)c2c1SCCS2 [Example 2-5, 5-(trifluoromethyl)-2,3-dihydro-1,4-benzodithiine-N-(1-methyltetrazol-5-yl)-8-carboxamide] | – | – | – | – | – | – | – | – | – | – | – | – | – | – | – | – | – | – | – | – | Herbicidal activity ABUTH [1, 3]: 100%; Herbicidal activity AMARE [1, 3]: 100%; Herbicidal activity MATIN [1, 3]: 100%; Herbicidal activity STEME [1, 3]: 90%; Herbicidal activity VERPE ([1]; pre-emergence (PE), Veronica persica, application rate 80, scored visually after about 3 weeks): 90%; Herbicidal activity VIOTR [1, 3]: 100%; Herbicidal activity ABUTH [2, 4]: 90%; Herbicidal activity AMARE [2, 4]: 100%; Herbicidal activity ECHCG [2, 4]: 90%; Herbicidal activity STEME [2, 4]: 80%; Herbicidal activity VIOTR [2, 4]: 80%; Herbicidal activity SETVI (SETVI; application rate 80, scored visually after about 3 weeks vs untreated controls, 100% = plants have died, 0% = like control plants): 90%
2 | Cn1nnnc1NC(=O)c1ccc(C(F)(F)F)c2c1S(=O)(=O)CCS2(=O)=O [Example 2-11] | 80% | 80% | 90% | – | – | – | – | – | – | – | – | – | – | – | – | – | – | – | – | – | Herbicidal activity ABUTH [1, 3]: 100%; Herbicidal activity AMARE [1, 3]: 80%; Herbicidal activity MATIN [1, 3]: 80%
3 | Cn1nnnc1NC(=O)c1ccc(C(F)(F)F)c2c1OCCS2 [Example 2-13, 5-(trifluoromethyl)-2,3-dihydro-1,4-benzoxathiine-N-(1-methyltetrazol-5-yl)-8-carboxamide] | 90% | 100% | 100% | 100% | 100% | 90% | 100% | 100% | 80% | 90% | 100% | 100% | 90% | 90% | 90% | 80% | 90% | 90% | 100% | 80% | Herbicidal action against ABUTH ([1]; pre-emergence (PE) comparative experiment with A-117, Abutilon theophrasti, dosage 320 g/ha): 100%; Herbicidal action against ALOMY ([1]; pre-emergence (PE) comparative experiment with A-117, Alopecurus myosuroides, dosage 320 g/ha): 90%; Herbicidal action against MATIN ([1]; pre-emergence (PE) comparative experiment with A-117, Matricaria inodora, dosage 320 g/ha): 100%; herbicidal activity compared to compound No. A-117 ([1]; pre-emergence comparative experiment, numerous harmful plants): superiority of the compound according to the invention was demonstrated clearly; Herbicidal action against ABUTH ([2]; post-emergence (PO) comparative experiment with A-117, Abutilon theophrasti, dosage 80 g/ha): 100%; Herbicidal action against ALOMY ([2]; post-emergence (PO) comparative experiment with A-117, Alopecurus myosuroides, dosage 80 g/ha): 90%; Herbicidal action against AVEFA ([2]; post-emergence (PO) comparative experiment with A-117, Avena fatua, dosage 80 g/ha): 90%; Herbicidal action against LOLMU ([2]; post-emergence (PO) comparative experiment with A-117, Lolium multiflorum, dosage 80 g/ha): 80%; Herbicidal action against POLCO ([2]; post-emergence (PO) comparative experiment with A-117, Polygonum convolvulus, dosage 80 g/ha): 80%; Herbicidal activity ALOMY [2, 5]: 90%; Herbicidal activity LOLMU [2, 5]: 80%; Herbicidal activity MATIN [2, 5]: 90%; herbicidal activity compared to compound No. A-117 ([2]; post-emergence comparative experiment, numerous harmful plants): superiority of the compound according to the invention was demonstrated clearly; Herbicidal action against SETVI (SETVI; pre-emergence (PE) comparative experiment with A-117, Setaria viridis, dosage 320 g/ha): 100%; Herbicidal action against AVEFA (AVEFA; pre-emergence (PE) comparative experiment with A-117, Avena fatua, dosage 320 g/ha): 80%
4 | Cn1nnnc1NC(=O)c1ccc(C(F)(F)F)c2c1OCC[S+]2[O-] (stereo not drawn) [Example 2-17, 5-(trifluoromethyl)-2,3-dihydro-1,4-benzoxathiine-N-(1-methyltetrazol-5-yl)-8-carboxamide 4-oxide] | 90% | 100% | 100% | 100% | 100% | 100% | 100% | 90% | – | 100% | 100% | 100% | 90% | 100% | 100% | 90% | 90% | 100% | 100% | 80% | Herbicidal activity ALOMY [2, 5]: 90%; Herbicidal activity CYPES [2, 5]: 100%; Herbicidal activity LOLMU [2, 5]: 90%; Herbicidal activity MATIN [2, 5]: 90%
5 | Cn1nnnc1NC(=O)c1ccc(C(F)(F)F)c2c1OCCS2(=O)=O [Example 2-20, 5-(trifluoromethyl)-2,3-dihydro-1,4-benzoxathiine-N-(1-methyltetrazol-5-yl)-8-carboxamide 4,4-dioxide] | 90% | 100% | 100% | 100% | 100% | 100% | 100% | 100% | 100% | 90% | 100% | 100% | 100% | 80% | 90% | 100% | 90% | 90% | 100% | 100% | Herbicidal activity ALOMY [2, 5]: 80%; Herbicidal activity CYPES [2, 5]: 80%; Herbicidal activity LOLMU [2, 5]: 80%; Herbicidal activity MATIN [2, 5]: 100%
6 | Cn1nnnc1NC(=O)c1ccc(C(F)(F)F)c2c1OCC(Cl)S2 (stereo not drawn) [Example 2-41] | – | – | – | – | – | – | – | – | – | – | – | – | 90% | – | – | – | – | – | – | – | –
7 | CCn1nnnc1NC(=O)c1ccc(C(F)(F)F)c2c1OCCS2 [Example 3-13, 5-(trifluoromethyl)-2,3-dihydro-1,4-benzoxathiine-N-(1-ethyltetrazol-5-yl)-8-carboxamide] | 100% | – | 100% | 100% | 100% | 100% | 100% | 90% | 90% | 100% | 100% | 100% | 90% | 90% | 90% | 100% | 90% | 100% | 100% | 80% | –
